One block for each molecule: values may come before it. Peptide text beside a SMILES is read from it.
How the values were obtained:
[1] = ANTS/DPX dye leakage assay with large unilamellar vesicles; assay type: biochemical; details: 500 µM lipid
Method: Large unilamellar vesicles were prepared using a modified procedure from Wimley. Individual solutions of 1-palmitoyl-2-oleoyl-glycero-3-phosphocholine (POPC) and 1-palmitoyl-2-oleoyl-sn-glycero-3-phospho-(1’-rac-glycerol) (sodium salt) (POPG) lipids (Avanti Research, Alabaster, AL, USA) in chloroform were mixed in a 7:3 mol/mol POPC–POPG ratio, and the chloroform was gently evaporated under a stream of nitrogen gas. The lipid film was then dried in vacuo overnight. After complete evaporation of the chloroform, the lipid film was resuspended in the vesicle preparation buffer to yield a 25 mM lipid solution. The vesicle preparation buffer consisted of 45 mM KCl, 10 mM Tris HCl, 8 mM 8-aminonaphthalene-1,3,6-trisulfonic acid disodium salt (ANTS) (Fisher Scientific Inc., Waltham, MA, USA), and 32 mM p-xylene-bis-pyridinium bromide (DPX) (Fisher Scientific, Inc.). The lipid film was allowed to dissolve in the vesicle preparation buffer for approximately 15 min. If any lipid film remained on the side of the tube, the solution was gently pipetted up and down to mix the film with the liposome suspension. Once the film was thoroughly dissolved, the lipid suspension was subjected to 10 freeze/thaw cycles using a dry ice/ethanol bath and a 60 °C water bath to facilitate encapsulation of the fluorophore and quencher pair (ANTS and DPX). […]
Lyophilized peptide was dissolved in the liposome elution buffer at a volume corresponding to half the total volume needed for the experiment. The liposome solution was diluted to 1 mM lipid from the concentration calculated using the phosphorus concentration method described above. […]
Fluorescence measurements were conducted on a Tecan Spark® 20M plate reader (Tecan, Männedorf, Zurich, Switzerland). […] The wells were excited at 355 nm with a bandwidth of 5 nm, and emission was monitored at a wavelength of 520 nm with a bandwidth of 10 nm. The gain and z-position were calculated using a well containing liposomes lysed with reduced Triton^TM X-100 (Sigma-Aldrich) to produce maximum fluorescence. […]
To ensure accurate comparison across batches of liposomes, the percentage leakage was calculated using the formula: PercentLeakage=F−F0/Flysed−F0×100 where F is the relative fluorescence (RF) at time t, F0 is the RF at t=0 , and Flysed is the RF after the addition of detergent. Since leakage occurred immediately upon mixing the liposome and peptide solutions, the initial fluorescence ( F0 ) was determined by adding the relative fluorescence of liposomes alone to the relative fluorescence of the peptide in the elution buffer at each relevant concentration. […] Leakage experiments were performed at least in triplicate, and error bars were calculated as the standard deviation about the mean. […]

[2] = Solubility in liquid elution buffer observed during CD measurements; assay type: physicochemical; details: liposome elution buffer (75 mM KCl, 20 mM Tris HCl), lyophilized peptide dissolved, 25 °C CD samples
Method: Circular dichroism (CD) spectra were recorded using a Jasco-815 circular dichroism spectrometer with a 0.1 mm path-length quartz cuvette. Scans were performed at 25 °C in duplicate, covering the wavelength range of 190–260 nm. The scanning parameters included a 1.0 nm data pitch, 1.0 nm bandwidth, and a scanning speed of 100 nm/min.
Additionally, the spectra recorded in the presence of the LUVs differed from those recorded in buffer alone. […] At peptide concentrations higher than 500 µM, M03 began to lose solubility, while M04 began to precipitate from solution at concentrations higher than 200 µM. The reduced solubility of M04 was likely due to the orientation of all its hydrophobic residues on one face of the α -helix, making it more prone to aggregation in aqueous solutions. […] It is also important to note that the CD spectra of M03 and M04 were noticeably different from each other. This underscores the effect that varying the sequence pattern, even slightly, can have on the resulting peptide properties.

[3] = immediately upon dissolution in aqueous solvent; cited from earlier work
Description: In the following section, we discuss the secondary structure and membrane damage properties of M03 and M04. […] This happened immediately upon dissolution in aqueous solvent; likely before it was able to interact with the membranes. Therefore, it was difficult to determine the effect of M01 peptides on membranes experimentally, as the leakage observed was likely due to mechanical disruption of the liposomes as the peptide monomers assembled ...

peptide concentration above which the peptide begins to lose solubility / precipitate [2]: higher than 500 µM
Molecule: CC(=O)N[C@@H](Cc1ccccc1)C(=O)N[C@@H](Cc1ccccc1)C(=O)N[C@@H](CCCCN)C(=O)N[C@@H](CCCCN)C(=O)N[C@@H](Cc1ccccc1)C(=O)N[C@@H](Cc1ccccc1)C(=O)N[C@@H](CCC(=O)O)C(=O)N[C@@H](CCC(=O)O)C(=O)N[C@@H](Cc1ccccc1)C(=O)N[C@@H](Cc1ccccc1)C(=O)N[C@@H](CCCCN)C(=O)N[C@@H](CCCCN)C(=O)N[C@@H](Cc1ccccc1)C(=O)N[C@@H](Cc1ccccc1)C(=O)N[C@@H](CCC(=O)O)C(=O)N[C@@H](CCC(=O)O)C(N)=O [Peptide M03, Ac-(FFKKFFEE)2-NH2] (Ac-FFKKFFEEFFKKFFEE-NH2)
percentage of leakage ([1]; all P:L ratios tested (1:50, 2:50, 1:10, 1:5, 2:5), ANTS/DPX in 7:3 POPC–POPG LUVs, 75 mM KCl/20 mM Tris HCl, room temperature, fluorescence ex 355/em 520 nm, at least triplicate): greater than 80%

peptide concentration above which the peptide begins to lose solubility / precipitate [2]: higher than 200 µM
Molecule: CC(=O)N[C@@H](Cc1ccccc1)C(=O)N[C@@H](Cc1ccccc1)C(=O)N[C@@H](CCCCN)C(=O)N[C@@H](CCCCN)C(=O)N[C@@H](Cc1ccccc1)C(=O)N[C@@H](Cc1ccccc1)C(=O)N[C@@H](CCC(=O)O)C(=O)N[C@@H](CCC(=O)O)C(=O)N[C@@H](Cc1ccccc1)C(=O)N[C@@H](CCCCN)C(=O)N[C@@H](CCCCN)C(=O)N[C@@H](Cc1ccccc1)C(=O)N[C@@H](Cc1ccccc1)C(=O)N[C@@H](CCC(=O)O)C(=O)N[C@@H](CCC(=O)O)C(=O)N[C@@H](Cc1ccccc1)C(N)=O [Peptide M04, Ac-FFKKFFEEFKKFFEEF-NH2] (Ac-FFKKFFEEFKKFFEEF-NH2)
percentage of leakage ([1]; P:L 1:50 (lowest ratio), ANTS/DPX in 7:3 POPC–POPG LUVs, 75 mM KCl/20 mM Tris HCl, fluorescence, at least triplicate): no leakage
percentage of leakage (damage) ([1]; P:L 2:50, ANTS/DPX in 7:3 POPC–POPG LUVs, 75 mM KCl/20 mM Tris HCl, fluorescence, at least triplicate): 21%

Molecule: CC(=O)N[C@@H](Cc1ccccc1)C(=O)N[C@@H](Cc1ccccc1)C(=O)N[C@@H](CCCCN)C(=O)N[C@@H](CCCCN)C(=O)N[C@@H](Cc1ccccc1)C(=O)N[C@@H](Cc1ccccc1)C(=O)N[C@@H](CCC(=O)O)C(=O)N[C@@H](CCC(=O)O)C(N)=O [Peptide M02, Ac-FFKKFFEE-NH2] (Ac-FFKKFFEE-NH2)
leakage ([1]; peptide 100 µM, 500 µM and 1 mM (P:L 1:5, 1:1, 2:1), 7:3 POPC–POPG LUVs, ANTS/DPX): minimal leakage

Molecule: Ac-FKFEFKFE-NH2 [Peptide M01, 8-residue amphipathic β-sheet forming peptide]
self-assembly / aggregation [3]: self-assembled into supramolecular β -sheet rich fibers

Source: paper PMC12292791, “Insights into Membrane Damage by α-Helical and β-Sheet Peptides” (Biomolecules, 2025)
